We go through two substances from US20160243168A1, “ADOPTIVE CELL TRANSFER METHODS” (Cantex Pharmaceuticals, Inc., priority 2015, published 2016).

For test [1], the target named is T1, binding of CXCL12 (SDF-1) to CXCR4 (Homo sapiens, UniProt P48061).
T1 construct: purchased R&D Systems (CXCL12); Abnova (CXCR4)
Nature of the test: in vitro inhibition assay of CXCL12 binding to CXCR4 (plate ELISA). As to conditions: recombinant human CXCL12 coated plate, recombinant CXCR4, absorbance 450 nm. As to the method: Polyvinyl 96-well high bind microplates (Corning Life Sciences, Corning, N.Y.) were coated with 0.5 μg/well of recombinant human CXCL12 (R&D Systems, Minneapolis, Minn.). Plates were incubated overnight at 4° C. and washed three times with PBS-0.05% Tween-20 (PBST). Separately, a constant amount of recombinant CXCR4 (Abnova, Taipei, Taiwan, 100 μL containing 0.8 μg/mL in PBST-0.1% BSA) was incubated with an equal volume of serially diluted ODSH (0.001-1,000 μg/mL in PBST-BSA) overnight at 4° C. The following day, 50 μL of CXCR4-ODSH mix was transferred to each respective CXCL12-coated well and incubated at 37° C. for 2 h. Wells were then washed four times with PBST. To detect bound CXCR4, 50 μL of a mouse anti-human CXCR4 antibody (R&D Systems, Minneapolis, Minn.) (1 μg/mL, in PBST) was added to each well, the mixture was incubated for 1 h at room temperature, and the wells were washed again four times with PBST. Horse-radish peroxidase-conjugated secondary antibody (R&D Systems, Minneapolis, Minn.) (50 μL per well) was added, wells were incubated for 1 h at room temperature, and then washed once with PBST. […] Absorbance at 450 nm was read using an automated microplate reader. IC50 values were determined from the plot of absorbance values vs. concentrations of ODSH.

In a further test the test system is anticoagulant activity. Nature of the test: USP anticoagulant assay. The class given is biochemical. As to conditions: seven serial 1.2 kg batches.
The test system of test [2] is Xa. Nature of the test: anti-Xa activity assay (plasma treated with Russell viper venom). It is filed as biochemical. The settings on record: seven serial 1.2 kg batches. The text has this: Another measure of ODSH's anticoagulant activity is its anti-Xa activity which can be determined in an assay carried out using plasma treated with Russell viper venom.
A further test has as its target IIa (Homo sapiens, UniProt P00734+P01008). Nature of the test: anti-IIa activity assay. The settings on record: seven serial 1.2 kg batches. The class given is biochemical.
For test [3], the system named is patients with newly diagnosed acute myeloid leukemia (AML). Nature of the test: single arm open-label clinical study, induction chemotherapy plus ODSH. It is filed as in vivo, human. The protocol:
A single arm open-label clinical study was conducted at multiple trial sites (University of Utah, Georgia Regents University, and Medical University of South Carolina) in patients with newly diagnosed acute myeloid leukemia (AML), seeking to confirm that ODSH could accelerate platelet and white blood cell (WBC) recovery in patients receiving induction chemotherapy with a regimen known to have myelosuppressive side effects.
All patients received the following standard (“7+3”) induction regimen, • Idarubicin (12 mg/m^2/day) by short intravenous infusion on Days 1, 2, and 3; and • Cytarabine (100 mg/m^2) as a continuous intravenous infusion over 24 hours (Days 1 through 7).
All patients also received ODSH as an intravenous bolus immediately after the idarubicin dose on Day 1, at a dose of 4 mg/kg, followed by a continuous intravenous infusion at a dose of 0.25 mg/kg/hr for a total of 7 days (Days 1 through 7).
Twelve patients were enrolled. The median age was 56 (range 22-74). Based on cytogenetic, molecular, or antecedent hematologic disorder, 9 of 12 patients fell into the intermediate or poor risk categories. […] Complete remission at the end of the induction cycle was assessed using International Working Group (IWG) criteria (see, e.g., Cheson et al., J. Clin. Oncol. 21:4642 (2003)). […]

For a further test, the system named is bone marrow cells. Nature of the test: serial bone marrow biopsies in the AML trial. The class given is in vivo, human. The text has this:
Bone marrow biopsies were obtained in the AML trial described in Example 1.
FIGS. 2A-2C are photomicrographs of biopsies from one of the patients.

Test [4] relates to Xa. The settings on record: Rao et al. 2010; cited from earlier work.

Where two headings read alike, the source gives them in different places.

T1 sequence (P48061 22-89 limits assumed): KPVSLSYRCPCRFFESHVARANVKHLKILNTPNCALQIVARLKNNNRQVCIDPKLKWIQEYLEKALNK

In the case of 2-O, 3-O desulfated heparin [ODSH], the “IC50 for inhibition of binding of CXCL12 (SDF-1) to CXCR4” value in test [1] amounted to 0.010 µg/mL. The same substance showed a USP anticoagulant activity with anticoagulant activity of 7±0.3 U/mg. The anti-Xa activity in the test on Xa [2] was 1.9±0.1 U/mg. The substance also gave an anti-IIa activity at IIa of 1.2±0.1 U/mg. Moreover, the “myelosuppressive side effects of the idarubicin+cytarabine regimen” value in test [3] (AML patients) is listed as “significantly attenuated”. In addition, the “Complete response with first induction cycle” value in test [3] (current study, n = 12, morphologic complete remission by IWG criteria) was 92%. For the same substance, the “bone marrow biopsy appearance” value in the test on bone marrow cells (Day 14 of the induction cycle, one patient) was “unexpected and significant depletion of normal bone marrow cells”; with bone marrow cells (Day 28, one patient), “no evidence of leukemia and restoration of normal bone marrow appearance and function”.

For “unfractionated heparin [reference compound]”, the USP anticoagulant activity with anticoagulant activity is listed as 165-190 U/mg. For the same substance, the anti-Xa activity in the test with Xa [2] and in the test on Xa [4] was 165-190 U/mg each time. Moreover, the anti-IIa activity at IIa is listed as 165-190 U/mg.
